Source: PubChem BioAssay AID1918938 (Molecular Pharmacology Branch, DTP, NCI, 2023)

Tested on: 556581-035-R-J1-PDC complex spheroid viability
Assay: Anticancer human tumor 556581-035-R-J1-PDC patient-derived ovarian carcinoma cell line growth inhibition
Details: for IC50: curve of first compound; for viability, T/C: stronger effect = lower value
Summary of the method: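 Multicellular complex spheroids of tumor cells with human endothelial cells (HUVEC) and mesenchymal stem cells; the LSD1 inhibitor iadademstat was combined with standard-of-care or investigational agents. Top concentration at or near clinical Cmax, half-log dilutions; final DMSO ≤0.25%.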

[1] = second compound 0.1 µM, first compound 0.0316 µM
[2] = second compound 0.1 µM, first compound 0.1 µM
[3] = second compound 0.1 µM, first compound 0.316 µM
[4] = second compound 0.1 µM, first compound 1 µM
[5] = second compound 0.1 µM, first compound 3.16 µM
[6] = second compound 0.1 µM, first compound 10 µM
[7] = second compound 0.316 µM, first compound 0.0316 µM
[8] = second compound 0.316 µM, first compound 0.1 µM
[9] = second compound 0.316 µM, first compound 0.316 µM
[10] = second compound 0.316 µM, first compound 1 µM
[11] = second compound 0.316 µM, first compound 3.16 µM
[12] = second compound 0.316 µM, first compound 10 µM
[13] = second compound 1 µM, first compound 0.0316 µM
[14] = second compound 1 µM, first compound 0.1 µM
[15] = second compound 1 µM, first compound 0.316 µM
[16] = second compound 1 µM, first compound 1 µM
[17] = second compound 1 µM, first compound 3.16 µM
[18] = second compound 1 µM, first compound 10 µM
[19] = second compound 3.16 µM, first compound 0.0316 µM
[20] = second compound 3.16 µM, first compound 0.1 µM
[21] = second compound 3.16 µM, first compound 0.316 µM
[22] = second compound 3.16 µM, first compound 1 µM
[23] = second compound 3.16 µM, first compound 3.16 µM
[24] = second compound 3.16 µM, first compound 10 µM
[25] = second compound 10 µM, first compound 0.0316 µM
[26] = second compound 10 µM, first compound 0.1 µM
[27] = second compound 10 µM, first compound 0.316 µM
[28] = second compound 10 µM, first compound 1 µM
[29] = second compound 10 µM, first compound 3.16 µM
[30] = second compound 10 µM, first compound 10 µM
[31] = second compound 0.1 µM, first compound 0.00949 µM
[32] = second compound 0.1 µM, first compound 0.03 µM
[33] = second compound 0.1 µM, first compound 0.0949 µM
[34] = second compound 0.1 µM, first compound 0.3 µM
[35] = second compound 0.316 µM, first compound 0.00949 µM
[36] = second compound 0.316 µM, first compound 0.03 µM
[37] = second compound 0.316 µM, first compound 0.0949 µM
[38] = second compound 0.316 µM, first compound 0.3 µM
[39] = second compound 1 µM, first compound 0.00949 µM
[40] = second compound 1 µM, first compound 0.03 µM
[41] = second compound 1 µM, first compound 0.0949 µM
[42] = second compound 1 µM, first compound 0.3 µM
[43] = second compound 3.16 µM, first compound 0.00949 µM
[44] = second compound 3.16 µM, first compound 0.03 µM
[45] = second compound 3.16 µM, first compound 0.0949 µM
[46] = second compound 3.16 µM, first compound 0.3 µM
[47] = second compound 10 µM, first compound 0.00949 µM
[48] = second compound 10 µM, first compound 0.03 µM
[49] = second compound 10 µM, first compound 0.0949 µM
[50] = second compound 10 µM, first compound 0.3 µM
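Note: spheroids exposed to agents for seven days.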
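Throughout, for viability, T/C: 100% = DMSO vehicle control wells.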

CC1(C)CCC(CN2CCN(c3ccc(C(=O)NS(=O)(=O)c4ccc(NCC5CCOCC5)c([N+](=O)[O-])c4)c(Oc4cnc5[nH]ccc5c4)c3)CC2)=C(c2ccc(Cl)cc2)C1 + NC1CCC(NC2CC2c2ccccc2)CC1
IC50 (second compound 0.1 µM): 4380 nM
IC50 (second compound 0.316 µM): 3500 nM
IC50 (second compound 1 µM): 4180 nM
IC50 (second compound 3.16 µM): 3830 nM
IC50 (second compound 10 µM): 2920 nM
viability, T/C [1]: 80.7%
viability, T/C [2]: 86.4%
viability, T/C [3]: 80%
viability, T/C [4]: 82.8%
viability, T/C [5]: 65.8%
viability, T/C [6]: 9.71%
viability, T/C [7]: 79.9%
viability, T/C [8]: 93.8%
viability, T/C [9]: 89.5%
viability, T/C [10]: 84.9%
viability, T/C [11]: 54.1%
viability, T/C [12]: 7.68%
viability, T/C [13]: 74.2%
viability, T/C [14]: 90.7%
viability, T/C [15]: 88%
viability, T/C [16]: 70.8%
viability, T/C [17]: 64.5%
viability, T/C [18]: 10.5%
viability, T/C [19]: 79.2%
viability, T/C [20]: 77.1%
viability, T/C [21]: 77.5%
viability, T/C [22]: 70.6%
viability, T/C [23]: 58.6%
viability, T/C [24]: 11.8%
viability, T/C [25]: 75.4%
viability, T/C [26]: 77.3%
viability, T/C [27]: 73.5%
viability, T/C [28]: 59.9%
viability, T/C [29]: 52.4%
viability, T/C [30]: 7.8%

CC1COCCN1c1cc(C2(S(C)(=N)=O)CC2)nc(-c2ccnc3[nH]ccc23)n1 (stereo not given) + NC1CCC(NC2CC2c2ccccc2)CC1
IC50 (second compound 0.1 µM): > 10000 nM
IC50 (second compound 0.316 µM): > 10000 nM
IC50 (second compound 1 µM): > 10000 nM
IC50 (second compound 3.16 µM): > 10000 nM
IC50 (second compound 10 µM): 6320 nM
viability, T/C [1]: 96.9%
viability, T/C [2]: 90.1%
viability, T/C [3]: 81.8%
viability, T/C [4]: 77.5%
viability, T/C [5]: 71.2%
viability, T/C [6]: 60.3%
viability, T/C [7]: 87.8%
viability, T/C [8]: 90.2%
viability, T/C [9]: 78.7%
viability, T/C [10]: 70%
viability, T/C [11]: 55.6%
viability, T/C [12]: 53.9%
viability, T/C [13]: 80%
viability, T/C [14]: 88.5%
viability, T/C [15]: 73.4%
viability, T/C [16]: 65.3%
viability, T/C [17]: 58.1%
viability, T/C [18]: 53.8%
viability, T/C [19]: 93.5%
viability, T/C [20]: 77.8%
viability, T/C [21]: 79.4%
viability, T/C [22]: 67.2%
viability, T/C [23]: 55.8%
viability, T/C [24]: 60.5%
viability, T/C [25]: 67.5%
viability, T/C [26]: 73.5%
viability, T/C [27]: 69%
viability, T/C [28]: 66.1%
viability, T/C [29]: 48%
viability, T/C [30]: 49.3%

CCN(c1cc(-c2ccc(CN3CCOCC3)cc2)cc(C(=O)NCc2c(C)cc(C)[nH]c2=O)c1C)C1CCOCC1 + NC1CCC(NC2CC2c2ccccc2)CC1
IC50 (second compound 0.1 µM): 1690 nM
IC50 (second compound 0.316 µM): > 3000 nM
IC50 (second compound 1 µM): 2270 nM
IC50 (second compound 3.16 µM): > 3000 nM
IC50 (second compound 10 µM): 1620 nM
viability, T/C [31]: 89.1%
viability, T/C [32]: 97%
viability, T/C [33]: 100%
viability, T/C [34]: 81.3%
viability, T/C (second compound 0.1 µM, first compound 0.949 µM): 59.1%
viability, T/C (second compound 0.1 µM, first compound 3 µM): 41.7%
viability, T/C [35]: 84.5%
viability, T/C [36]: 91.7%
viability, T/C [37]: 93.9%
viability, T/C [38]: 85.6%
viability, T/C (second compound 0.316 µM, first compound 0.949 µM): 55%
viability, T/C (second compound 0.316 µM, first compound 3 µM): 50.6%
viability, T/C [39]: 90.7%
viability, T/C [40]: 93%
viability, T/C [41]: 88.5%
viability, T/C [42]: 77.3%
viability, T/C (second compound 1 µM, first compound 0.949 µM): 57.1%
viability, T/C (second compound 1 µM, first compound 3 µM): 47.7%
viability, T/C [43]: 91.1%
viability, T/C [44]: 100%
viability, T/C [45]: 76.1%
viability, T/C [46]: 69.8%
viability, T/C (second compound 3.16 µM, first compound 0.949 µM): 60.1%
viability, T/C (second compound 3.16 µM, first compound 3 µM): 49.5%
viability, T/C [47]: 82.8%
viability, T/C [48]: 88.3%
viability, T/C [49]: 76.5%
viability, T/C [50]: 70.6%
viability, T/C (second compound 10 µM, first compound 0.949 µM): 54%
viability, T/C (second compound 10 µM, first compound 3 µM): 44.9%

Nc1ncn(C2CC(O)C(CO)S2)c(=O)n1 (stereo not given) + NC1CCC(NC2CC2c2ccccc2)CC1
IC50 (second compound 0.1 µM): 88.3 nM
IC50 (second compound 0.316 µM): 98.8 nM
IC50 (second compound 1 µM): 91.2 nM
IC50 (second compound 3.16 µM): 85.2 nM
IC50 (second compound 10 µM): 76.4 nM
viability, T/C (second compound 0.1 µM, first compound 0.000949 µM): 102%
viability, T/C (second compound 0.1 µM, first compound 0.003 µM): 93%
viability, T/C [31]: 99.5%
viability, T/C [32]: 69.4%
viability, T/C [33]: 52.4%
viability, T/C [34]: 41.5%
viability, T/C (second compound 0.316 µM, first compound 0.000949 µM): 91.5%
viability, T/C (second compound 0.316 µM, first compound 0.003 µM): 94.8%
viability, T/C [35]: 83.7%
viability, T/C [36]: 73%
viability, T/C [37]: 49.9%
viability, T/C [38]: 36.6%
viability, T/C (second compound 1 µM, first compound 0.000949 µM): 91.2%
viability, T/C (second compound 1 µM, first compound 0.003 µM): 93.3%
viability, T/C [39]: 79.6%
viability, T/C [40]: 67%
viability, T/C [41]: 49.5%
viability, T/C [42]: 39%
viability, T/C (second compound 3.16 µM, first compound 0.000949 µM): 96%
viability, T/C (second compound 3.16 µM, first compound 0.003 µM): 90%
viability, T/C [43]: 94.6%
viability, T/C [44]: 67.8%
viability, T/C [45]: 51.1%
viability, T/C [46]: 43.8%
viability, T/C (second compound 10 µM, first compound 0.000949 µM): 88.5%
viability, T/C (second compound 10 µM, first compound 0.003 µM): 83.2%
viability, T/C [47]: 71.9%
viability, T/C [48]: 61.1%
viability, T/C [49]: 46%
viability, T/C [50]: 42.1%

O=C(C=Cn1cnc(-c2cc(C(F)(F)F)cc(C(F)(F)F)c2)n1)NNc1cnccn1 + NC1CCC(NC2CC2c2ccccc2)CC1
IC50 (second compound 0.1 µM): 214 nM
IC50 (second compound 0.316 µM): 138 nM
IC50 (second compound 1 µM): 289 nM
IC50 (second compound 3.16 µM): 254 nM
IC50 (second compound 10 µM): 340 nM
viability, T/C (second compound 0.1 µM, first compound 0.00316 µM): 75.4%
viability, T/C (second compound 0.1 µM, first compound 0.01 µM): 78.2%
viability, T/C [1]: 78.6%
viability, T/C [2]: 59.9%
viability, T/C [3]: 44.8%
viability, T/C [4]: 24.6%
viability, T/C (second compound 0.316 µM, first compound 0.00316 µM): 81.8%
viability, T/C (second compound 0.316 µM, first compound 0.01 µM): 86.2%
viability, T/C [7]: 78.8%
viability, T/C [8]: 49%
viability, T/C [9]: 44.1%
viability, T/C [10]: 25.2%
viability, T/C (second compound 1 µM, first compound 0.00316 µM): 76%
viability, T/C (second compound 1 µM, first compound 0.01 µM): 74.7%
viability, T/C [13]: 77%
viability, T/C [14]: 68.2%
viability, T/C [15]: 48.6%
viability, T/C [16]: 20.1%
viability, T/C (second compound 3.16 µM, first compound 0.00316 µM): 75.8%
viability, T/C (second compound 3.16 µM, first compound 0.01 µM): 86.9%
viability, T/C [19]: 75.5%
viability, T/C [20]: 67.2%
viability, T/C [21]: 46.2%
viability, T/C [22]: 25.3%
viability, T/C (second compound 10 µM, first compound 0.00316 µM): 67.2%
viability, T/C (second compound 10 µM, first compound 0.01 µM): 71.7%
viability, T/C [25]: 66.6%
viability, T/C [26]: 61.8%
viability, T/C [27]: 53.5%
viability, T/C [28]: 17.3%
